Assay [1] deals with human lung cancer-derived cell line NCI-H460 having wild-type p53. The experiment in a line: Cell growth inhibition assay (MTT). The assay is classed as cell-based. Conditions: 72 h, NCI-H460 cells, 3 days culture, values given as ranges, read-out: 50% growth inhibition concentration (GI50 value). How it is done: A cell growth inhibition assay was conducted using a human lung cancer-derived cell line NCI-H460 having wild-type p53.
NCI-H460 cells were suspended in a medium (RPMI1640 medium containing 10% fetal bovine serum) and the suspension was added in an amount of 500 cells/150 μl/well to a 96-well plate. A test compound was dissolved in DMSO and this solution was diluted with medium to prepare a sample solution (DMSO concentration: 1% or lower). On the next day, medium nonsupplemented with the test compound, or the sample solution, was added in an amount of 50 μl/well. Cells were then cultured at 37° ° C. for 3 days in a 5% CO2 atmosphere.
An MTT assay was conducted immediately after the nonsupplemented medium or the sample solution was added. Another MTT assay was conducted after culturing the cells for 3 days. The MIT assays were conducted as shown below.
A 5 mg/ml MTT (3-(4,5-dimethylthiazol-2-yl)-2,5-diphenyltetrazolium bromide, Sigma-Aldrich Co., M-2128) solution was prepared using a phosphate buffer solution (Dulbecco's Phosphate-buffered Saline). This MIT solution was added in an amount of 20 μl/well. Then the plate was cultured at 37° ° C. for 4 hours in a 5% CO2 atmosphere. The plate was centrifuged at 1200 rpm for 5 minutes and then the culture supernatant was removed by aspiration using a dispenser. DMSO was added in an amount of 150 μl/well to dissolve generated formazan. The plate was stirred using a plate mixer for uniform color development from each well. The absorbance of each well was measured at OD 540 nm and at a reference OD (660 nm) using a plate reader (SpectraMax PLUS384, Molecular Devices, CA, USA).
The OD value measured on the day of adding the sample solution was defined as S. The OD value measured three days after addition of the sample solution was defined as T. The OD value measured three days after addition of the DMSO dilution was defined as C. T/C (%) was determined at each concentration according to the formula shown below in order to prepare a dose response curve, from which 50% growth inhibition concentration (GI50 value) was calculated.

The target in assay [2] is T1, Mdm2/p53 binding (GST-Mdm2 / His-p53) (Homo sapiens, UniProt Q00987, L33E).
T1 construct: Mdm2 partial protein having Mdm2 amino acids at positions 25 to 108
T1 sequence (Q00987 25-108 L33E): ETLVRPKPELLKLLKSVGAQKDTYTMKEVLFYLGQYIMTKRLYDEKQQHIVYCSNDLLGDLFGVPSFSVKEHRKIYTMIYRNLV
The experiment in a line: Mdm2/p53 binding assay (HTRF, His-p53 and GST-Mdm2). As to conditions: His-p53 (aa 1-132) and GST-Mdm2 (aa 25-108, L33E) 6.25 nM each; 25°C, 1 hour; values given as ranges. The gist of the method:
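His-p53 (aa 1–132) and GST-Mdm2 (aa 25–108, L33E) were prepared at 6.25 nM each in the protein dilution (20 mM HEPES pH 7.4, 150 mM NaCl, 0.1% BSA). Compound in 10% DMSO buffer and XL665 anti-His/Eu anti-GST antibodies (KF buffer) were added, with 1 h at 25 °C. The 665/620 nm TR-FRET ratio gave T/C and a sigmoid-fitted IC50.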
On the technique in general: In TR-FRET formats the signal depends on donor and acceptor labels being close together.

Usually IC50 stands for the concentration at which inhibition is half-maximal. Read a high IC50 as lower potency. In the case of `CC1(C)CCC2(CC1)N[C@@H](C(=O)N[C@H]1C[C@H](C(N)=O)C1)[C@H](c1ccnc(Cl)c1F)[C@]21C(=O)Nc2cc(Cl)ccc21` [Example 114, (3′R, 4′S,5′R)—N-(trans-3-carbamoylcyclobutyl)-6″-chloro-4′-(2-chloro-3-fluoropyridin-4-yl)-4,4-dimethyl-2″-oxo-1″,2″-dihydrodispiro[cyclohexane-1,2′-pyrrolidine-3′,3″-indole]-5′-carboxamide], the GI50 in assay [1] was in the range of 500 to 1000 nM. In assay [2], this compound returned an IC50 of 1 to 50 nM.

For `CNC(=O)[C@@H]1CC[C@@H](NC(=O)[C@@H]2NC3(CCC(C)(C)CC3)[C@@]3(C(=O)Nc4cc(Cl)ccc43)[C@H]2c2ccnc(Cl)c2F)CO1` [Example 99, (3′R, 4′S,5′R)-6″-chloro-4′-(2-chloro-3-fluoropyridin-4-yl)-N-[(3R,6S)-6-(methylcarbamoyl)tetrahydro-2H-pyran-3-yl]-4,4-dimethyl-2″-oxo-1″,2″-dihydrodispiro[cyclohexane-1,2′-pyrrolidine-3′,3″-indole]-5′-carboxamide], the GI50 in assay [1] is under 100 nM. For the same compound, the IC50 in assay [2] lay in the range of 1 to 50 nM. With `CC1(C)CCC2(CC1)N[C@@H](C(=O)N[C@H]1CC[C@H](c3nnco3)CC1)[C@H](c1cccc(Cl)c1F)[C@]21C(=O)Nc2nc(Cl)ccc21` (relative stereo) [Example 5, (3′R, 4′S,5′R)-6″-chloro-4′-(3-chloro-2-fluorophenyl)-4,4-dimethyl-N-[trans-4-(1,3,4-oxadiazol-2-yl)cyclohexyl]-2″-oxo-1″,2″-dihydrodispiro[cyclohexane-1,2′-pyrrolidine-3′,3″-pyrrolo[2,3-b]pyridine]-5′-carboxamide], the GI50 in assay [1] is 1000 to 5000 nM. This compound yielded an IC50 in assay [2] of 50 to 100 nM. Regarding `CC1(C)CCC2(CC1)N[C@@H](C(=O)N[C@@H]1CCC(C)(C(=O)O)OC1)[C@H](c1ccnc(Cl)c1F)[C@]21C(=O)Nc2cc(Cl)ccc21` (stereo partly drawn) [Example 186, (5R)-5-({[(3′R, 4′S,5′R)-6″-chloro-4′-(2-chloro-3-fluoropyridin-4-yl)-4,4-dimethyl-2″-oxo-1″,2″-dihydrodispiro[cyclohexane-1,2′-pyrrolidine-3′,3″-indole]-5′-yl]carbonyl}amino)-2-methyltetrahydro-2H-pyran-2-carboxylic acid], the GI50 in assay [1] fell in the range of 1000 to 5000 nM. Also, the IC50 in assay [2] was in the range of 1 to 50 nM.

Turning to `CC1(C)CCC2(CC1)N[C@@H](C(=O)NC1CC3(C1)CC(CO)(CO)C3)[C@H](c1ccnc(Cl)c1F)[C@]21C(=O)Nc2cc(Cl)ccc21` [Example 162, (3′R, 4′S,5′R)—N-[6,6-bis(hydroxymethyl)spiro[3.3]hepta-2-yl]-6″-chloro-4′-(2-chloro-3-fluoropyridin-4-yl)-4,4-dimethyl-2′-oxo-1″,2″-dihydrodispiro[cyclohexane-1,2′-pyrrolidine-3′,3″-indole]-5′-carboxamide], the GI50 in assay [1] was 100 to 500 nM. The IC50 in assay [2] is 50 to 100 nM. Regarding `CC1(C)CCC2(CC1)N[C@@H](C(=O)N[C@H]1CC[C@H](c3nnco3)CC1)[C@H](c1cccc(Cl)c1F)[C@]21C(=O)Nc2cc(Cl)ccc21` [Example 183, (3′R, 4′S,5′R)-6′-chloro-4′-(3-chloro-2-fluorophenyl)-4,4-dimethyl-N-[trans-4-(1,3,4-oxadiazol-2-yl)cyclohexyl]-2″-oxo-1″,2″-dihydrodispiro[cyclohexane-1,2′-pyrrolidine-3′,3″-indole]-5′-carboxamide], the GI50 in assay [1] is 100 to 500 nM. Moreover, the IC50 in assay [2] was in the range of 50 to 100 nM. As to `CC1(C)CCC2(CC1)N[C@@H](C(=O)N[C@@H]1CC[C@@H](CO)OC1)[C@H](c1ccnc(Cl)c1F)[C@]21C(=O)Nc2cc(Cl)ccc21` [Example 20, (3′R, 4′S,5′R)-6″-chloro-4′-(2-chloro-3-fluoropyridin-4-yl)-N-[(3R,6S)-6-(hydroxymethyl)tetrahydro-2H-pyran-3-yl]-4,4-dimethyl-2″-oxo-1″,2″-dihydrodispiro[cyclohexane-1,2′-pyrrolidine-3′,3″-indole]-S′-carboxamide], in assay [1], the GI50 was under 100 nM. The IC50 in assay [2] lay in the range of 1 to 50 nM. For the compound `CC1(C)CCC2(CC1)N[C@@H](C(=O)N[C@H]1CC[C@H](c3nnco3)CC1)[C@H](c1ccnc(Cl)c1)[C@]21C(=O)Nc2cc(Cl)ccc21` [Example 54, (3′R, 4′R, 5′R)-6″-chloro-4′-(2-chloropyridin-4-yl)-4,4-dimethyl-N-[trans-4-(1,3,4-oxadiazol-2-yl)cyclohexyl]-2″-oxo-1″,2″-dihydrodispiro[cyclohexane-1,2′-pyrrolidine-3′,3″-indole]-5′-carboxamide], the GI50 in assay [1] was 500 to 1000 nM. Moreover, the IC50 in assay [2] lay in the range of 50 to 100 nM.

Regarding `O=C(N[C@@H]1CC[C@@H](CO)OC1)[C@@H]1NC2(CC(CF)(CF)C2)[C@@]2(C(=O)Nc3cc(Cl)ccc32)[C@H]1c1cc(F)cc(Cl)c1` [Example 164, (3′R, 4′R, 5′R)-6″-chloro-4′-(3-chloro-5-fluorophenyl)-3,3-bis(fluoromethyl)-N-[(3R,6S)-6-(hydroxymethyl)tetrahydro-2H-pyran-3-yl]-2″-oxo-1″,2″-dihydrodispiro[cyclobutane-1,2′-pyrrolidine-3′,3″-indole]-5′-carboxamide], the GI50 in assay [1] is 1000 to 5000 nM. Moreover, the 50% inhibitory concentration (IC50) in assay [2] is 100 to 500 nM.

`CC1(C)CCC2(CC1)N[C@@H](C(=O)N[C@H]1CO[C@H](CO)[C@@H](O)C1)[C@H](c1cccc(Cl)c1F)[C@]21C(=O)Nc2nc(Cl)ccc21` [Example 30, (3′R, 4′S,5′R)-6″-chloro-4′-(3-chloro-2-fluorophenyl)-N-[(3R,5S,6R)-5-hydroxy-6-(hydroxymethyl)tetrahydro-2H-pyran-3-yl]-4,4-dimethyl-2″-oxo-1″,2″-dihydrodispiro[cyclohexane-1,2′-pyrrolidine-3′,3″-pyrrolo[2,3-b]pyridine]-5′-carboxamide]: in assay [1], the GI50 lay in the range of 1000 to 5000 nM. Moreover, the IC50 in assay [2] is 1 to 50 nM.

As for `CC1(C)CCC2(CC1)N[C@@H](C(=O)N[C@@H]1CC[C@@H](C(N)=O)OC1)[C@H](c1ccnc(Cl)c1F)[C@]21C(=O)Nc2cc(Cl)ccc21` [Example 70, (3′R, 4′S,5′R)—N-[(3R,6S)-6-carbamoyltetrahydro-2H-pyran-3-yl]-6″-chloro-4′-(2-chloro-3-fluoropyridin-4-yl)-4,4-dimethyl-2″-oxo-1″,2″-dihydrodispiro[cyclohexane-1,2′-pyrrolidine-3′,3″-indole]-5′-carboxamide], the GI50 in assay [1] was under 100 nM. Turning to `CC(O)[C@@H]1CC[C@@H](NC(=O)[C@@H]2NC3(CCC(C)(C)CC3)[C@@]3(C(=O)Nc4cc(Cl)ccc43)C2c2ccnc(Cl)c2)CO1` (single isomer, unassigned) [Example 77], in assay [1], the GI50 is 100 to 500 nM. For the same compound, the IC50 in assay [2] was in the range of 1 to 50 nM. As for `CC1(C)CCC2(CC1)N[C@@H](C(=O)N[C@H]1CC[C@@](O)(CO)CC1)[C@H](c1ccnc(Cl)c1F)[C@]21C(=O)Nc2cc(Cl)ccc21` [Example 40, (3′R, 4′S,5R)-6″-chloro-4′-(2-chloro-3-fluoropyridin-4-yl)-N-[trans-4-hydroxy-4-(hydroxymethyl)cyclohexyl]-4,4-dimethyl-2″-oxo-1″,2″-dihydrodispiro[cyclohexane-1,2′-pyrrolidine-3′,3″-indole]-5′-carboxamide], in assay [1], the GI50 lay in the range of 500 to 1000 nM. The same compound gave an IC50 in assay [2] of 1 to 50 nM.

Turning to `CC1(C)CCC2(CC1)N[C@@H](C(=O)N[C@@H]1CC[C@@H](C(N)=O)OC1)[C@H](c1ccnc(Cl)c1F)[C@]21C(=O)Nc2cc(Cl)ncc21` [Example 191], the GI50 in assay [1] is 100 to 500 nM. Moreover, in assay [2], the IC50 fell in the range of 1 to 50 nM. For `CC1(C)CCC2(CC1)N[C@@H](C(=O)N[C@H]1CC[C@H](c3nnco3)CC1)[C@H](c1ccnc(Cl)c1F)[C@]21C(=O)Nc2nc(Cl)ccc21` (relative stereo) [Example 26, (3′R, 4′S,5′R)-6″-chloro-4′-(2-chloro-3-fluoropyridin-4-yl)-4,4-dimethyl-N-[trans-4-(1,3,4-oxadiazol-2-yl)cyclohexyl]-2″-oxo-1″,2″-dihydrodispiro[cyclohexane-1,2′-pyrrolidine-3′,3″-pyrrolo[2,3-b]pyridine]-5′-carboxamide], the GI50 in assay [1] is 500 to 1000 nM. Moreover, the IC50 in assay [2] lay within 50 to 100 nM. Regarding `CC1(C)CCC2(CC1)N[C@@H](C(=O)N[C@@H]1CC[C@@H](C(O)CO)OC1)[C@H](c1ccnc(Cl)c1F)[C@]21C(=O)Nc2cc(Cl)ccc21` (single isomer, unassigned) [Example 90], in assay [1], the GI50 is 100 to 500 nM.

For the origin of these results see patent US12545685B2 (Daiichi Sankyo Company, Limited, priority 2011, dated 2026).
